± gives the uncertainty stated by the source.
Experiment: xn = mol fraction of the nth substance listed

CCCCC/C=C\C/C=C\CCCCCCCC(=O)OCC(COC(=O)CCCCCCC/C=C\C/C=C\CCCCC)OC(=O)CCCCCCC/C=C\C/C=C\CCCCC + Cc1ccc(C)cc1
viscosity [mPa·s], 101.3 kPa
Settings	x1 = 0.000712	x1 = 0.001435	x1 = 0.00217	x1 = 0.002914	x1 = 0.003771	x1 = 0.004524	x1 = 0.005322	x1 = 0.006113
298.15 K	0.6159 ± 0.0044	0.6268 ± 0.0045	0.638 ± 0.0045	0.6494 ± 0.0046	0.6627 ± 0.0047	0.6742 ± 0.0047	0.6861 ± 0.0048	0.6966 ± 0.0049
303.15 K	0.5801 ± 0.0042	0.5903 ± 0.0042	0.6008 ± 0.0043	0.6115 ± 0.0044	0.6238 ± 0.0044	0.6346 ± 0.0045	0.6455 ± 0.0046	0.6549 ± 0.0046
308.15 K	0.5474 ± 0.004	0.557 ± 0.004	0.5668 ± 0.0041	0.5769 ± 0.0042	0.5885 ± 0.0042	0.5985 ± 0.0043	0.6085 ± 0.0043	0.617 ± 0.0044
313.15 K	0.5174 ± 0.0038	0.5265 ± 0.0039	0.5358 ± 0.0039	0.5453 ± 0.004	0.5561 ± 0.004	0.5654 ± 0.0041	0.5747 ± 0.0041	0.5824 ± 0.0042
318.15 K	0.49 ± 0.0036	0.4986 ± 0.0037	0.5074 ± 0.0037	0.5163 ± 0.0038	0.5265 ± 0.0039	0.5352 ± 0.0039	0.5437 ± 0.004	0.5507 ± 0.004

C=C(C)C(=O)OC + CCCCOCCCC
viscosity [mPa·s], 101.3 kPa
Settings	298.15 K	308.15 K
x1 = 0.0446	0.633 ± 0.005	0.581 ± 0.004
x1 = 0.1479	0.616 ± 0.005	0.561 ± 0.004
x1 = 0.2442	0.603 ± 0.004	0.546 ± 0.004
x1 = 0.3388	0.593 ± 0.004	0.532 ± 0.004
x1 = 0.4495	0.584 ± 0.004	0.519 ± 0.004
x1 = 0.4924	0.581 ± 0.004	0.515 ± 0.004
x1 = 0.5489	0.579 ± 0.004	0.51 ± 0.004
x1 = 0.6504	0.576 ± 0.004	0.502 ± 0.004
x1 = 0.7489	0.575 ± 0.004	0.496 ± 0.004
x1 = 0.8501	0.577 ± 0.004	0.492 ± 0.004
x1 = 0.9428	0.581 ± 0.004	0.49 ± 0.004

CCCCC/C=C\C/C=C\CCCCCCCC(=O)OCC(COC(=O)CCCCCCC/C=C\C/C=C\CCCCC)OC(=O)CCCCCCC/C=C\C/C=C\CCCCC + c1ccccc1
viscosity [mPa·s], 101.3 kPa
Settings	x1 = 0.000427	x1 = 0.000515	x1 = 0.000838	x1 = 0.001044	x1 = 0.001751	x1 = 0.004505	x1 = 0.007049	x1 = 0.009645
298.15 K	0.6136 ± 0.0042	0.6153 ± 0.0042	0.6216 ± 0.0042	0.6257 ± 0.0043	0.6401 ± 0.0043	0.6974 ± 0.0047	0.7485 ± 0.005	0.8054 ± 0.0053
303.15 K	0.5723 ± 0.004	0.5739 ± 0.004	0.5797 ± 0.004	0.5836 ± 0.004	0.597 ± 0.0041	0.6502 ± 0.0044	0.6975 ± 0.0047	0.7492 ± 0.005
308.15 K	0.535 ± 0.0038	0.5365 ± 0.0038	0.5419 ± 0.0038	0.5455 ± 0.0038	0.558 ± 0.0039	0.6077 ± 0.0042	0.6515 ± 0.0044	0.6986 ± 0.0047

C=C(C)C(=O)OC + c1ccccc1
303.15 K, 101 kPa
Settings	viscosity [mPa·s]
x1 = 0.1019	0.5507 ± 0.0059
x1 = 0.198	0.543 ± 0.0059
x1 = 0.4005	0.5273 ± 0.0058
x1 = 0.4996	0.522 ± 0.0058
x1 = 0.5998	0.519 ± 0.0058
x1 = 0.8001	0.5141 ± 0.0058
x1 = 0.896	0.5142 ± 0.0058

CCCC[P+](C)(CCCC)CCCC.COS(=O)(=O)[O-] + CN(C)C=O
100 kPa
Settings	viscosity [mPa·s]
293.15 K, x1 = 0.4272	67.15 ± 1.8
303.15 K, x1 = 0.8837	286.5 ± 18
318.15 K, x1 = 0.6717	59.15 ± 1.6
323.15 K, x1 = 0.7768	84.15 ± 2.7

CCCCOP(=O)(O)OCCCC + CCCN
297 K, 101 kPa
Settings	viscosity [mPa·s]
x2 = 0.15	60 ± 10
x2 = 0.3	100 ± 30
x2 = 0.48	1370 ± 270
x2 = 0.5	1700 ± 330
x2 = 0.66	170 ± 40

O=C(c1ccccc1)N(O)c1ccccc1 + CS(C)=O
101 kPa
Settings	viscosity [mPa·s]
308.15 K, x1 = 0.1408	2.065 ± 0.099
318.15 K, x1 = 0.4694	1.565 ± 0.075
